Tests used:
[1] = target: Recombinant human c-KIT kinase (Homo sapiens (Human), UniProt P10721); experiment: c-KIT kinase chemiluminescence assay (ADP-Glo); format: biochemical; conditions: ATP 50 μM
Protocol: The c-KIT Kinase Enzyme System (V4498) and ADP-Glo™ Kinase Assay kit (V6930) were purchased from Promega (Madison, WI). DMSO (D2650) was purchased from Sigma-Aldrich (Burlington, MA).
Kinase Reaction: The kinase assay was based on the recommended protocol by c-KIT Kinase Enzyme System from Promega. Recombinant human c-KIT kinase in 3 μL of assay buffer (40 mM Tris pH 7.5, 20 mM MgCl2, 0.1 mg/mL BSA and 50 μM DTT) was added to the test or high control wells and 3 μL of assay buffer was added to the low control wells. The microplate was centrifuged at 800 rotations per minute (rpm) for 60 s and incubated at room temperature (RT) for 30 min. Next, 2 μL of buffered ATP and polyEY substrate solution was added to all wells. The microplate was centrifuged at 800 rpm for 60 s and incubated at RT for 2 h.
ADP detection with ADP-Glo™ Kinase Assay: After the kinase reaction incubation, 5 μL of ADP-Glo™ reagent was added to all wells. The microplate was centrifuged at 800 rpm for 60 s and incubated at RT for 40 min. Ten microliter (10 μL) of Kinase Detection Reagent (Luciferin-Luciferase system) was then added to all wells. The microplate was centrifuged at 800 rpm for 60 s and incubated at RT for 60 min. Kinase activity was measured as increase in luminescence at RT in an Envision plate reader equipped with 560 nm filters and operating in endpoint mode. Data Analysis: Endpoint chemiluminescence from high and low control wells were used to calculate normalized c-KIT activity at various concentrations of test compounds. The normalized activities were fitted to inhibitor-versus-normalized response fit in GraphPad Prism 7 to determine half-maximal inhibitory concentration (IC50) and hill coefficient values (H).
Where I is the inhibitor concentration and H is the Hill coefficient.

M-07e cells = experiment: M-07e cellular assay (SCF-mediated cell proliferation); format: cell-based; conditions: Homo sapiens, 72 hours, CellTiter Glo
Protocol: M-07e cells (Creative Bioarray, CSC-C0249) which endogenously express human c-KIT were used to evaluate the effect of compounds on stem cell factor (SCF)-mediated cell proliferation. M-07e cells were cultured in growth media (RPMI+10% FBS+1% penicillin/streptomycin+10 ng/mL GM-CSF) at 5E5-1.5E6 cells/mL, replenishing media every 3-4 days. 1.5E4 cells were seeded per well in 384 well tissue culture treated plates in 20 μL assay media (RPMI+[…]+1% penicillin/streptomycin) without growth factor stimulation and incubated at 37° C. in a CO2 humidity-controlled incubator. Twenty-four hours later, three-fold serially diluted test compounds in media containing SCF (at the previously determined EC90) were added to the plated M-07e cells and incubated for an additional 72 hours. Cell viability was determined by adding 25 μL CellTiter Glo (Promega) to the cells and the luminescence was measured using a Perkin Elmer Envision plate reader. The EC50 was determined using GraphPad Prism. Percent cell growth was determined after normalizing the curve to the mean RLU high control (no compound control wells) at 100% and the mean RLU low control (no SCF control wells) at 0%.

Chain of Recombinant human c-KIT kinase (P10721 26-976): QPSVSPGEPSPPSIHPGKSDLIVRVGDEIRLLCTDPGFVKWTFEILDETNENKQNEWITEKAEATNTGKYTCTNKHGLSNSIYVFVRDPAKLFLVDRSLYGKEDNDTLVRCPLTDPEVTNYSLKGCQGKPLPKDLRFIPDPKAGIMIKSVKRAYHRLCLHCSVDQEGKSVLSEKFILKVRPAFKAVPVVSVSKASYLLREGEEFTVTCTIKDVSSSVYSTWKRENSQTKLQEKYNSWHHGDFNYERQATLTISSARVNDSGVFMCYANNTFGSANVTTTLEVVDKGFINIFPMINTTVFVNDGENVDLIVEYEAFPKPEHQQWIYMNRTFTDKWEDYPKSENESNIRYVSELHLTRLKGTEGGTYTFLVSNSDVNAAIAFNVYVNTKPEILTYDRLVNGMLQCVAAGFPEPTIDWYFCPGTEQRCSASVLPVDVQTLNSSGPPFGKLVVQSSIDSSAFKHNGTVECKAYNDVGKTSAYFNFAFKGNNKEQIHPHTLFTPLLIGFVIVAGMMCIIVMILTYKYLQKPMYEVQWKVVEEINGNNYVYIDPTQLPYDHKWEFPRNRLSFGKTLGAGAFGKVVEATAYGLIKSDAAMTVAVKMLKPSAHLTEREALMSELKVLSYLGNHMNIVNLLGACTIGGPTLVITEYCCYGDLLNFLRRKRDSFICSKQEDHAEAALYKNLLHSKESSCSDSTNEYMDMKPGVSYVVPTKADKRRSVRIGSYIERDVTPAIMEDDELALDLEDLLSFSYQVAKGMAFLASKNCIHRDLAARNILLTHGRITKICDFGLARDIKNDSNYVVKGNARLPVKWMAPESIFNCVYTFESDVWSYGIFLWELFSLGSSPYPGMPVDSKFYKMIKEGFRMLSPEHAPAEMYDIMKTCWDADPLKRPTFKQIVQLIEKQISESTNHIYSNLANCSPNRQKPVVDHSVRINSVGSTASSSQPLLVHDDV

| Structure (SMILES) | IC50 [1] [nM] | EC50 (M-07e cells) [nM] |
| --- | --- | --- |
| Cc1ccc(-c2noc([C@H]3C[C@@H]3F)n2)cc1NC(=O)c1cnn2cc(F)ccc12 [Example 1a] | 100 to 1000 | 100 to 1000 |
| Cc1ccc(-c2noc([C@H]3C[C@@H]3F)n2)cc1NC(=O)c1cncn1C [Example 2] | > 1000 | > 1000 |
| Cc1ccc(-c2noc(C3C[C@@H]3F)n2)cc1NC(=O)c1cnn2ccc(-c3cnn(C(F)F)c3)cc12 (stereo partly drawn) [Example 2a] |  | < 100 |
| Cc1ccc(-c2noc([C@H]3C[C@@H]3F)n2)cc1NC(=O)c1cccnc1 [Example 3] | > 1000 | > 1000 |
| Cc1ccc(-c2noc([C@H]3C[C@@H]3F)n2)cc1NC(=O)c1cnc(C)n1C [Example 4] | > 1000 | > 1000 |
| Cc1ccc(-c2noc([C@H]3C[C@@H]3F)n2)cc1NC(=O)c1cccnn1 [Example 5] | > 1000 | > 1000 |
| Cc1ccc(-c2noc([C@H]3C[C@@H]3F)n2)cc1NC(=O)c1cnn2ccccc12 [Example 6] | < 100 | < 100 |
| Cc1ccc(-c2noc([C@H]3C[C@@H]3F)n2)cc1NC(=O)c1cnn2cccnc12 [Example 7] | > 1000 | > 1000 |
| Cc1ccc(-c2noc([C@H]3C[C@@H]3F)n2)cc1NC(=O)c1cnc(-c2ccccc2)n1C [Example 14] | 100 to 1000 | > 1000 |
| Cc1ccc(-c2noc([C@H]3C[C@@H]3F)n2)cc1NC(=O)c1cnn2ccncc12 [Example 15] | 100 to 1000 | 100 to 1000 |
| Cc1ccc(-c2noc([C@H]3C[C@@H]3F)n2)cc1NC(=O)c1cnn(-c2ccccc2)c1 [Example 23] | 100 to 1000 | 100 to 1000 |
| Cc1ccc(-c2noc([C@H]3C[C@@H]3F)n2)cc1NC(=O)c1ccnc2ccccc12 [Example 27] | > 1000 | > 1000 |
| Cc1ccc(-c2noc([C@H]3C[C@@H]3F)n2)cc1NC(=O)c1cnc2sccn12 [Example 30] | < 100 | 100 to 1000 |
| Cc1ncc(C(=O)Nc2cc(-c3noc([C@H]4C[C@@H]4F)n3)ccc2C)s1 [Example 34] | > 1000 | > 1000 |
| Cc1ccc(-c2noc([C@H]3C[C@@H]3F)n2)cc1NC(=O)c1cnn(C)c1 [Example 35] | > 1000 | > 1000 |
| Cc1ccc(-c2noc([C@H]3C[C@@H]3F)n2)cc1NC(=O)c1cnn2c1CCC2 [Example 36] | > 1000 | > 1000 |
| Cc1ccc(-c2noc([C@H]3C[C@@H]3F)n2)cc1NC(=O)c1cnc2n1Cc1ccccc1-2 [Example 99] |  | < 100 |
| Cc1ncc(-c2ccn3ncc(C(=O)Nc4cc(-c5noc([C@H]6C[C@@H]6F)n5)ccc4C)c3c2)c(C)n1 [Example 168] |  | < 100 |
| Cc1ccc(-c2noc(C3C[C@@H]3F)n2)cc1NC(=O)c1cnn2ccc(N3C[C@H](CS(C)(=O)=O)[C@@H]3C)cc12 (stereo partly drawn) [Example 172] |  | < 100 |
| Cc1ccc(-c2noc([C@H]3C[C@@H]3F)n2)cc1NC(=O)c1cnc(-c2cnc(N)nc2)o1 [Example 308-64] |  | > 1000 |
| Cc1ccc(-c2nc([C@H]3C[C@@H]3F)cs2)cc1NC(=O)c1cnn2ccc(N3CC4(COC4)C3)cc12 [Example 309] |  | < 100 |
| Cc1ncc(-c2ncc(OC(F)(F)F)cn2)cc1NC(=O)c1cnn2ccc(-c3c(C)nc(N)nc3C)cc12 [Example 364] |  | < 100 |
| Cc1nc(N)nc(C)c1-c1ccn2ncc(C(=O)Nc3cc(-c4noc([C@H]5C[C@@H](OC(F)(F)F)C5)n4)sc3C)c2c1 [Example 368] |  | 100 to 1000 |
| Cc1nc(N)nc(C)c1-c1ccn2ncc(C(=O)Nc3cc(-c4noc(C5CN(C(=O)OC(C)(C)C)C5)n4)sc3C)c2c1 [Example 369] |  | > 1000 |
| Cc1nc(N)nc(C)c1-c1ccn2ncc(C(=O)Nc3cc(-c4noc([C@H]5C[C@@H]5F)n4)sc3C)c2c1 [Example 370] |  | > 1000 |
| Cc1nc(N)nc(C)c1-c1ccn2ncc(C(=O)Nc3cc(-c4noc(C5CN(C(=O)[C@H]6C[C@@H]6F)C5)n4)sc3C)c2c1 [Example 371] |  | > 1000 |
| Cc1nn(-c2ccc(C3CC3)cc2)cc1NC(=O)c1cnn2ccc(N3CC4(COC4)C3)cc12 [Example 372] |  | > 1000 |

From patent US20250059174A1, “Pharmaceutical Compounds and Compositions as C-Kit Kinase Inhibitors” (Enanta Pharmaceuticals, Inc., priority 2023, published 2025)
